Measurements published in US20260216197A1, “WRN HELICASE INHIBITOR” (SUZHOU PUHE BIOPHARMA CO., LTD., priority 2022, published 2026).
Like-named read-outs stand apart in the source and are kept apart here. Each block holds one compound with its values, some of them ahead of it.

Columns and labels:
[1] = tested on: MSI-H colorectal cancer SW48 cell line; assay: 2D anti-proliferative activity, MSI-H SW48 cells (CTG, 5 days); assay type: cell-based; conditions: for inhibition at 38.15 pM: 0.038146973 nM; for inhibition at 0.000152588 µM: 0.152587891 nM; for inhibition at 0.000610352 µM: 0.610351563 nM; for inhibition at 0.00244141 µM: 2.44140625 nM; for inhibition at 0.00976562 µM: 9.765625 nM; for inhibition at 0.0390625 µM: 39.0625 nM; for inhibition at 0.15625 µM: 156.25 nM; for inhibition at 0.625 µM: 625 nM; for inhibition at […]: 2500 nM; for inhibition at 10 µM: 10000 nM; for IC50: 5 days
Protocol: The molecules of the present disclosure were tested for their anti-proliferative activity against MSI-H tumor cells.
The proliferation of tumor cells with microsatellite instability MSI-H is sensitive to WRN inhibitors, while the proliferation of microsatellite stable (MSS) tumor cells is insensitive to WRN inhibitors. By testing the activities of the two, it is shown that the molecules of the present disclosure have an inhibitory and synthetic lethal effect on WRN at the cellular level.
(§1) The MSI-unstable SW48 colorectal cancer cells were cultured in RPMI 1640 medium containing 10% FBS and 1% penicillin-streptomycin in a 37° C., 5% CO2 constant temperature incubator. A 40 μL cell suspension was added to each well of a 384-well microplate. Using Echo, 40 nL of compounds at different concentrations was dispensed into each well, followed by incubation in a 37° C., 5% CO2 constant temperature incubator for 5 days. Then, 40 μL of CTG solution (Promega, Cat No. G7573) was added to each well, and the plate was incubated in the dark in a 37° C., 5% CO2 constant temperature incubator for 30 minutes. Luminescence was measured using an Envision multi-function microplate reader (Perkin Elmer, Model: Envision 2104). The luminescent signal was proportional to the amount of ATP in the system, and the amount of ATP directly represented the number of living cells in the system.

[2] = Pharmacokinetic evaluation in mice; assay type: in vivo, CD1 female mice; conditions: for F: PO 10 mg/kg vs IV 2 mg/kg; for AUC(0-t): read-out: AUC0-24
Protocol: CD1 female mice were used as test animals and the drug was administered orally/intravenously (oral dosage: 10 mg/kg, intravenous dosage: 2 mg/kg).
Assay protocol: The oral group consisted of 3 mice per group (vehicle: 10% Hβ-CD-pH7.4), and the intravenous group consisted of 3 mice per group. […] The blood concentrations in plasma after oral and intravenous administration of mice were determined by LC/MS/MS, respectively.

WRN helicase = WRN helicase (Homo sapiens, UniProt Q14191); assay: WRN helicase hydrolysis/unwinding of double-stranded DNA (fluorescence); assay type: biochemical
Chain of WRN helicase (Q14191 whole entry): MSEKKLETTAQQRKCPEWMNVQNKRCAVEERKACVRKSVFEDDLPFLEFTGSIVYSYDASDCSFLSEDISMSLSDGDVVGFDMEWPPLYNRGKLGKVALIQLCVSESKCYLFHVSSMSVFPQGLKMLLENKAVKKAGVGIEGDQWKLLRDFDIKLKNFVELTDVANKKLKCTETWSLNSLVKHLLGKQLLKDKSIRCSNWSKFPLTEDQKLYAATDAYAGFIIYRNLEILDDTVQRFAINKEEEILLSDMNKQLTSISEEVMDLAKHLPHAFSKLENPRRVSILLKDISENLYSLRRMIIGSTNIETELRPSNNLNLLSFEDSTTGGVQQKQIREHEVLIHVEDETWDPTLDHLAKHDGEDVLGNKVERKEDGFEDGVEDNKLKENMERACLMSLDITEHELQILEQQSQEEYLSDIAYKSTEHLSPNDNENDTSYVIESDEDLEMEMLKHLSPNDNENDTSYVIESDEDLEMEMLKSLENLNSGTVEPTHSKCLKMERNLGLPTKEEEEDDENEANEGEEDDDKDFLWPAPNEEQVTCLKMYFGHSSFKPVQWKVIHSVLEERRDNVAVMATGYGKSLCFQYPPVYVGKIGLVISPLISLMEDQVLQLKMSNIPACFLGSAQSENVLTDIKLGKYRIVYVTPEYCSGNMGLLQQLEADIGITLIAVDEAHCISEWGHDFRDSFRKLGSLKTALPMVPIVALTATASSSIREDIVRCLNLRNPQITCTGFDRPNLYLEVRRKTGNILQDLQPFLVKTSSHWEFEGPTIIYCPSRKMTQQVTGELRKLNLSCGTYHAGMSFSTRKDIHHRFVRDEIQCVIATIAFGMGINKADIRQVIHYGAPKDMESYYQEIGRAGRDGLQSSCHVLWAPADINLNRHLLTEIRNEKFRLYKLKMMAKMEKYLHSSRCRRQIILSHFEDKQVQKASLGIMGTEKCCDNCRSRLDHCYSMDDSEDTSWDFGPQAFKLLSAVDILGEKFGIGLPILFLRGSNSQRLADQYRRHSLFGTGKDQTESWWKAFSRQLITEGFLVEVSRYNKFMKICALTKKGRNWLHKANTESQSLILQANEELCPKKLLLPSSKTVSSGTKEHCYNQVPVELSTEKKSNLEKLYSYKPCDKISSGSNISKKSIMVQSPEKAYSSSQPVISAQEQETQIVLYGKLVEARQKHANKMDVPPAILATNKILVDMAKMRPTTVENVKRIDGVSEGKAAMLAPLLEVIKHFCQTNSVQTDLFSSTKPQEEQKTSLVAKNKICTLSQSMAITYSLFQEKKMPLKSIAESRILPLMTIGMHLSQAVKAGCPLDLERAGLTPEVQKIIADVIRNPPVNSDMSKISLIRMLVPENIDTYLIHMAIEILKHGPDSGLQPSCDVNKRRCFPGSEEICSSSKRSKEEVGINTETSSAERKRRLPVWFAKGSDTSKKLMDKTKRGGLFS
Protocol: The activity of the molecules of the present disclosure on the hydrolysis of double-stranded PP-6TR DNA by WRN helicase was tested.
The working solution and buffer were prepared, and the test compound was dissolved in DMSO followed by a4-fold dilution (with a final concentration of 10 μM as the starting concentration). Then, 0.2 μL of the test compound solution was added to a384-well plate, followed by 10 μL of (2×) WRN enzyme solution. The mixture was incubated in the dark for 30 minutes, after which 10 μL of substrate detection solution containing double-stranded DNA was added to initiate the reaction (DNA length: 19 bp, labeled with TAMRA at the 3′ end and BHQ2 at the 5′ end). The mixture was incubated at room temperature for 60 minutes. The inhibitory activity (IC50) against the WRN enzyme was calculated based on the fluorescence change (Ex530/Em590) between the blank group (DMSO) and the compound group.

[3] = tested on: MSS colorectal cancer HT-29 cell line; assay: 2D anti-proliferative activity, MSS HT-29 cells (CTG, 5 days); assay type: cell-based; conditions: Homo sapiens, 120 h
Protocol: The molecules of the present disclosure were tested for their anti-proliferative activity against MSS tumor cells.
as §1, with “MSS HT-29” for “MSI-unstable SW48”, “McCoy's 5A” for “RPMI 1640”

[4] = Liver microsome stability test; assay type: in vitro ADME; conditions: human liver microsomes 0.5 mg/mL, compound 1 μM, NADPH 1 mM, 60 minutes; for microsomal CLint at 1 μM: read-out: Human Clint μL/min/mg Protein
Protocol: The liver microsome stability test of the compounds is as follows:
The compounds of the present disclosure were subjected to a liver microsome stability test. The compounds to be tested were co-incubated with liver microsomes of different species with or without the addition of NADPH. The final concentration of the compounds to be tested in the test system was 1 μM, the final concentration of NADPH was 1 mM, and the final concentration of liver microsomes was 0.5 mg/mL.

[5] = Homo sapiens, read-out: Average value/ Inhibition rate
[6] = Homo sapiens, read-out: Test 1/ Inhibition rate
[7] = Homo sapiens, read-out: Test 2/ Inhibition rate
[8] = female, CD1, mouse, plasma, IV 2 mg/kg
[9] = female, CD1, mouse, plasma, PO 10 mg/kg

Compound: CCc1c(N2CCN(C(=O)c3ncccc3O)CC2)c(=O)n2nc(-c3cccnc3)nc2n1CC(=O)Nc1ccc(C(F)(F)F)cc1C [Compound A1, reference compound]
- inhibition at 38.15 pM [1, 5]: -0.406%
- inhibition at 38.15 pM [1, 6]: -2%
- inhibition at 38.15 pM [1, 7]: 1.19%
- inhibition at 0.000152588 µM [1, 5]: -9.39%
- inhibition at 0.000152588 µM [1, 6]: -13.2%
- inhibition at 0.000152588 µM [1, 7]: -5.61%
- inhibition at 0.000610352 µM [1, 5]: -2.32%
- inhibition at 0.000610352 µM [1, 6]: -2.37%
- inhibition at 0.000610352 µM [1, 7]: -2.27%
- inhibition at 0.00244141 µM [1, 5]: -11.4%
- inhibition at 0.00244141 µM [1, 6]: -13.8%
- inhibition at 0.00244141 µM [1, 7]: -8.9%
- inhibition at 0.00976562 µM [1, 5]: -4.03%
- inhibition at 0.00976562 µM [1, 6]: 0.0311%
- inhibition at 0.00976562 µM [1, 7]: -8.09%
- inhibition at 0.0390625 µM [1, 5]: -11.9%
- inhibition at 0.0390625 µM [1, 6]: -12.6%
- inhibition at 0.0390625 µM [1, 7]: -11.1%
- inhibition at 0.15625 µM [1, 5]: 6.4%
- inhibition at 0.15625 µM [1, 6]: -2.14%
- inhibition at 0.15625 µM [1, 7]: 14.9%
- inhibition at 0.625 µM [1, 5]: 97.4%
- inhibition at 0.625 µM [1, 6]: 97.9%
- inhibition at 0.625 µM [1, 7]: 96.9%
- inhibition at […] [1, 5]: 101%
- inhibition at […] [1, 6]: 99.8%
- inhibition at […] [1, 7]: 101%
- inhibition at 10 µM [1, 5]: 102%
- inhibition at 10 µM [1, 6]: 101%
- inhibition at 10 µM [1, 7]: 102%
- IC50 ([1]; Homo sapiens, 120 h): 261 nM
- F [2]: 14%

Compound: CCc1c(N2CCN(C(=O)c3ncnc(C)c3O)CC2)c(=O)n2nc(C3=CCOCC3)nc2n1CC(=O)Nc1ccc(C(F)(F)F)cc1SC [Compound H4]
- IC50 [3]: > 10000 nM
- IC50 ([1]; Homo sapiens, 120 h): 2560 nM
- IC50 (WRN helicase): 71 nM

Compound: CCc1c(N2CCN(C(=O)c3ncnc(C)c3O)CC2)c(=O)n2nc(C3=CCC(OC)CC3)nc2n1CC(=O)Nc1ccc(C(F)(F)F)c2ccsc12 (stereo not drawn) [Compound H12]
- IC50 [3]: > 10000 nM
- IC50 ([1]; Homo sapiens, 120 h): 126 nM
- CLint scaled at 1 μM [4]: 28 mL/min/kg
- microsomal CLint at 1 μM [4]: 22 µL/min/mg

Compound: Cc1ncnc(C(=O)N2CCN(c3c(C4CC4)n(CC(=O)Nc4ccc(C(F)(F)F)c5ccsc45)c4nc(C5=CCOCC5)nn4c3=O)CC2)c1O [Compound H18]
- IC50 [3]: > 10000 nM

Compound: CCc1c(N2CCN(C(=O)c3ncnc(C)c3O)CC2)c(=O)n2nc(C3=CCOCC3)nc2n1CC(=O)Nc1ccc(C(F)(F)F)c2scnc12 [Compound H21]
- IC50 [3]: > 10000 nM
- IC50 ([1]; Homo sapiens, 120 h): 175 nM
- CLint scaled at 1 μM [4]: 6 mL/min/kg
- microsomal CLint at 1 μM [4]: 4.8 µL/min/mg

Compound: CCc1c(N2CCN(C(=O)c3ncnc(C)c3O)CC2)c(=O)n2nc(C3=CCOCC3)nc2n1CC(=O)Nc1ccc(Br)c2ccoc12 [Compound H25]
- IC50 ([1]; Homo sapiens, 120 h): 125 nM

Compound: CCc1c(N2CCN(C(=O)c3ncccc3O)CC2)c(=O)n2nc(-c3cccs3)nc2n1CC(=O)Nc1ccc(C(F)(F)F)cc1Cl [Compound P4]
- IC50 [1]: 135 nM
- IC50 (WRN helicase): 1.9 nM

Compound: CCc1c(N2CCN(C(=O)c3ncccc3O)CC2)c(=O)n2nc(C3=CCS(=O)(=O)CC3)nc2n1CC(=O)Nc1ccc(C(F)(F)F)cc1Cl [Compound P6]
- IC50 (WRN helicase): 3.5 nM

More lines, now with the values ahead:

- IC50 ([1]; Homo sapiens, 120 h): 2540 nM
- IC50 (WRN helicase): 16 nM
Compound: CCc1c(N2CCN(C(=O)c3ncccc3O)CC2)c(=O)n2nc(C3=CCOCC3)nc2n1CC(=O)NC12CC(C(F)(F)F)(C1)C2 [Compound A2, reference compound]

- IC50 (WRN helicase): 295 nM
Compound: CCc1c(N2CCN(C(=O)c3ncnc(C)c3O)CC2)c(=O)n2nc(C3=CCOCC3)nc2n1CC(=O)Nc1ccc2c(c1)NCC2(O)C(F)(F)F (stereo not drawn) [Compound H5]

- IC50 (WRN helicase): 625 nM
Compound: CCc1c(N2CCN(C(=O)c3ncnc(C)c3O)CC2)c(=O)n2nc(C3=CCOCC3)nc2n1CC(=O)Nc1ccc2c(C(F)(F)F)c[nH]c2c1 [Compound H6]

- IC50 ([1]; Homo sapiens, 120 h): 1940 nM
- IC50 (WRN helicase): 9.5 nM
Compound: CCc1c(N2CCN(C(=O)c3ncccc3O)CC2)c(=O)n2nc(C3=CCOCC3)nc2n1CC(=O)Nc1ccc(C(F)(F)F)c2c1OCCO2 [Compound H7]

- IC50 [3]: > 10000 nM
- IC50 ([1]; Homo sapiens, 120 h): 101 nM
- F [2]: 35%
- clearance [2, 8]: 50.4 mL/min/kg
- half-life [2, 8]: 18 min
- AUC(0-t) [2, 8]: 655 ng·h/mL
- C0 ([2]; female, CD1, mouse, plasma, IV 2 mg/kg, read-out: C0): 1740 ng/mL
- half-life [2, 9]: 114 min
- AUC(0-t) [2, 9]: 1050 ng·h/mL
- Cmax ([2]; female, CD1, mouse, plasma, PO 10 mg/kg, read-out: Cmax): 693 ng/mL
- Tmax ([2]; female, CD1, mouse, plasma, PO 10 mg/kg, read-out: Tmax): 15 min
- CLint scaled at 1 μM [4]: 2.5 mL/min/kg
- microsomal CLint at 1 μM [4]: 2 µL/min/mg
Compound: CCc1c(N2CCN(C(=O)c3ncnc(C)c3O)CC2)c(=O)n2nc(C3=CCOCC3)nc2n1CC(=O)Nc1ccc(Br)c2ccsc12 [Compound H15]

- IC50 [3]: > 10000 nM
- IC50 ([1]; Homo sapiens, 120 h): 123 nM
Compound: CCc1c(N2CCN(C(=O)c3ncnc(C)c3O)C[C@@H]2C)c(=O)n2nc(C3=CCOCC3)nc2n1CC(=O)Nc1ccc(C(F)(F)F)c2ccsc12 [Compound H17]

- IC50 [3]: > 10000 nM
- IC50 ([1]; Homo sapiens, 120 h): > 10000 nM
Compound: CCc1c(N2CCN(C(=O)c3ncnc(C)c3O)CC2)c(=O)n2nc(C3=CCOCC3)nc2n1CC(=O)Nc1ccc2c3c1ncn3CCC2 [Compound H23]

- IC50 ([1]; Homo sapiens, 120 h): 474 nM
Compound: CCc1c(N2CCN(C(=O)c3ncnc(C)c3O)CC2)c(=O)n2nc(C3=CCOCC3)nc2n1CC(=O)Nc1ccc2c3c1ccn3CCC2 [Compound H24]

- IC50 ([1]; Homo sapiens, 120 h): 137 nM
Compound: CCc1c(N2CCN(C(=O)c3ncnc(C)c3O)CC2)c(=O)n2nc(C3=CCOCC3)nc2n1CC(=O)Nc1ccc(Cl)c2ccoc12 [Compound H26]

- IC50 (WRN helicase): 3890 nM
Compound: CCc1c(N2CC3(CN(C(=O)c4ncnc(C)c4O)C3)C2)c(=O)n2nc(C3=CCOCC3)nc2n1CC(=O)Nc1ccc(C(F)(F)F)cc1Cl [Compound P1]

- IC50 ([1]; Homo sapiens, 120 h): 192 nM
Compound: CCc1c(N2CCN(C(=O)c3ncccc3O)CC2)c(=O)n2nc(-c3cncs3)nc2n1CC(=O)Nc1ccc(C(F)(F)F)cc1Cl [Compound P5]
